How the values were obtained:
[1] = test system: STAT5 Y694 phosphorylation; assay: Protein electrophoresis and blotting of STAT5 Y694 phosphorylation in Jurkat cells stimulated with human interferon beta; assay type: cell-based; conditions: for Example of Effect 1: Inhibiting Ability (Protein Electrophoresis and Blotting): observed pSTAT5 bands at 10 μM and 100 μM; for Inhibiting Ratio (0% for vehicle control): 1 hour pretreatment, 20 ng/ml human interferon beta 30 minutes, pSTAT5/GAPDH
Summary of the method: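 Serum-free Jurkat cells pretreated with compound 1 h, then stimulated with 20 ng/ml human interferon beta for 30 min at 37° C. pSTAT5 measured by western blot with chemiluminescence, normalized to GAPDH and expressed as percent of DMSO control.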

[2] = test system: STAT5 Y694 phosphorylation; assay: HTRF experiment: STAT5 Y694 phosphorylation in Hela cells stimulated with human interferon beta; assay type: cell-based; conditions: 2 hours pretreatment, 10 nM human interferon beta 30 minutes
Protocol: Example of Effect 3: HTRF Experiment
Human Interferon 3 (IFN-0) (GenScript, Cat #P01574), STAT5 Y694 phosphorylation detection kit (STAT5 phospho-Y694 kit) (Cisbio; Cat #64AT5PEG).
Hela cells (ATCC American Standard Culture Center, CCL-2) were cultured in a 96-well plate at a density of 3×10^4 cells/well with DMEM medium containing 5% fetal bovine serum and maintained at 37° C. in a humidified incubator with 5% carbon dioxide overnight. On the second day, the original DMEM medium in the 96-well plate was sucked dry, and an equal volume of medium containing different concentrations of compounds (the mother liquor of the compound prepared by dimethyl sulfoxide was diluted in the medium at the required concentration) was added for pretreatment for 2 hours, and then it was placed in an incubator at 37° C. Then human interferon beta with a final concentration of 10 nM was added to stimulate, and it was gently shaken to mix well and then placed in an incubator at 37° C. for 30 minutes.
The medium was removed, an appropriate volume of PBS was added to wash, and then it was sucked dry. Then 40 microliters of 1× Lysis Buffer was added to each well and it was stood for 30 minutes at room temperature (1 ml 1× lysate preparation: 740 μl ddH2O was added to 250 μl 4× lysate and 10 μl Blocking reagent and it was mixed thoroughly). After 30 minutes, the cells were repeatedly blown until the lysis solution was not viscous (avoiding blowing out bubbles) to achieve sufficient lysis.
After overnight incubation, the signals of 665 nm and 620 nm were detected in a multifunctional microplate reader. The calculation formula for the detection of STAT5 Y694 phosphorylation is: Ratio=[(signal 665 nm)/(signal 620 nm)]×10^4. Treatment with dimethyl sulfoxide alone was the baseline control (Ratiobase), and the human interferon β stimulation without addition of the compound was the STAT5 Y694 full phosphorylation activation control (Ratiostimulation), the inhibition rate of STAT5 Y694 phosphorylation of different samples was normalized: Inhibition rate=[1−(RatioExperiment−Ratiobase)/(Ratiostimulation−Ratiobase)]*100.

Compound	Example of Effect 1: Inhibiting Ability (Protein Electrophoresis and Blotting) [1]	Example of Effect 3: Inhibiting Ratio@10 μM (HTRF Experiment) [2]	Inhibiting Ratio (0% for vehicle control) ([1]; 1 μM)	Inhibiting Ratio (0% for vehicle control) ([1]; 10 μM)	Inhibiting Ratio (0% for vehicle control) ([1]; 100 μM)
COc1ccc2[nH]c(=O)n(C3CCN(C(=O)Cc4ccc(C(F)(F)F)cc4)CC3)c2c1 [GEN1-011, 6-methoxy-1-(1-(2-(4-(trifluoromethyl)phenyl)acetyl)piperidin-4-yl)-1H-benzo[d]imidazole-2 (3H)-one]	+	20.49%			
O=C(Cc1ccc(C(F)(F)F)cc1)N1CCC(n2c(=O)[nH]c3cccc(C(F)(F)F)c32)CC1 [GEN1-013, 7-(trifluoromethyl)-1-(1-(2-(4-(trifluoromethyl)phenyl)acetyl)piperidin-4-yl)-1H-benzo[d]imidazole-2(3H)-one]	+	20.29%	12.4%	62.6%	97.0%
N#Cc1cccc2[nH]c(=O)n(C3CCN(C(=O)Cc4ccc(C(F)(F)F)cc4)CC3)c12 [GEN1-014, 2-oxo-3-(1-(2-(4-(trifluoromethyl)phenyl)acetyl)piperidin-4-yl)-2,3-dihydro-1H-benzo[d]imidazole-4-carbonitrile]	+	16.12%	14.2%	78.8%	99.1%
O=C(Cc1ccc(C(F)(F)F)cc1)N1CCC(n2c(=O)[nH]c3cccc(O)c32)CC1 [GEN1-016, 7-hydroxy-1-(1-(2-(4-(trifluoromethyl)phenyl)acetyl)piperidin-4-yl)-1H-benzo[d]imidazole-2 (3H)-one]	+	9.50%			
CC(C)(C)c1ccc(CC(=O)N2CCC(n3c(=O)[nH]c4ccccc43)CC2)cc1 [GEN1-031, 1-(1-(2-(4-(tert-butyl)phenyl)acetyl)piperidin-4-yl)-1H-benzo[d]imidazole-2(3H)-one]	+	0.13%	19.7%	38.1%	98.7%
O=C(Cc1ccc(C(F)(F)F)cc1)N1CCC2(CC1)C(=O)NCN2c1ccccc1 [GEN1-049, 1-phenyl-8-(2-(4-(trifluoromethyl)phenyl)acetyl)-1,3,8triazaspiro[4.5]decane-4-one]	−	18.33%			
O=C(Cc1ccc(C(F)(F)F)cc1)N1CCC(n2c(=S)[nH]c3ccccc32)CC1 [GEN1-050, 1-(4-(2-thioxo-2,3-dihydro-1H-benzo[d]imidazol-1-yl)piperidin-1-yl)-2-(4-(trifluoromethyl)phenyl)ethanone]	+	15.28%			
O=C1CN(C2CCN(C(=O)Cc3ccc(C(F)(F)F)cc3)CC2)c2ccccc2N1 [GEN1-052, 4-(1-(2-(4-(trifluoromethyl)phenyl)acetyl)piperidin-4-yl)-3,4-dihydroquinoxaline-2(1H)-one]	+	8.83%			
Nc1nc2ccccc2n1C1CCN(C(=O)Cc2ccc(C(F)(F)F)cc2)CC1 [GEN1-055, 1-(4-(2-amino-1H-benzo[d]imidazol-1-yl)piperidin-1-yl)-2-(4-(trifluoromethyl)phenyl)ethanone]	+	16.88%	25.0%	50.0%	89.6%
CC(=O)Nc1ccccc1NC1CCN(C(=O)Cc2ccc(C(F)(F)F)cc2)CC1 [GEN1-057, N-(2-((1-(2-(4-(trifluoromethyl)phenyl)acetyl)piperidin-4-yl)amino)phenyl)acetamide]	++	66.22%			
O=C(Cc1ccc2ncccc2c1)N1CCC(n2c(=O)[nH]c3ccccc32)CC1 [GEN1-075, 1-(1-(2-(quinolin-6-yl)acetyl)piperidin-4-yl)-1H-benzo[d]imidazol-2(3H)-one]	+	10.79%			
O=C(Cc1ccc(C(F)(F)F)cc1)N1CCC(n2c(=O)[nH]c3ccc(C4CC4)cc32)CC1 [GEN1-089, 6-cyclopropyl-1-(1-(2-(4-(trifluoromethyl)phenyl)acetyl)piperidin-4-yl)-1H-benzo[d]imidazol-2(3H)-one]	+	7.83%			
O=C(Cc1ccc(C(F)(F)F)cc1)N1CCC(n2c(=O)[nH]c3cccc([N+](=O)[O-])c32)CC1 [GEN1-091, 7-nitro-1-(1-(2-(4-(trifluoromethyl)phenyl)acetyl)piperidin-4-yl)-1H-benzo[d]imidazol-2(3H)-one]	+	17.60%			
O=C(C[C@H]1CC[C@@H](C(F)(F)F)CC1)N1CCC(n2c(=O)[nH]c3ccccc32)CC1 [GEN1-107, (Cis)-1-(1-(2-(4-(trifluoromethyl)cyclohexyl)acetyl)piperidin-4-yl)-1H-benzo[d]imidazol-2(3H)-one]	+	37.09%			
O=C(C[C@H]1CC[C@H](C(F)(F)F)CC1)N1CCC(n2c(=O)[nH]c3ccccc32)CC1 [GEN1-108, (trans)-1-(1-(2-(4-(trifluoromethyl)cyclohexyl)acetyl)piperidin-4-yl)-1H-benzo[d]imidazol-2(3H)-one]	+	38.81%			
O=C(Cc1ccc2c(c1)OCO2)N1CCC(n2c(=O)[nH]c3cccc(C(F)(F)F)c32)CC1 [GEN1-116, 1-(1-(2-(benzo[d][1,3]dioxol-5-yl)acetyl)piperidin-4-yl)-7-(trifluoromethyl)-1,3-dihydro-2H-benzo[d]imidazol-2-one]	+	35.01%			
O=C(Cc1ccc2ncccc2c1)N1CCC(n2c(=O)[nH]c3cccc(C(F)(F)F)c32)CC1 [GEN1-117, 1-(1-(2-(quinolin-6-yl)acetyl)piperidin-4-yl)-7-(trifluoromethyl)-1H-benzo[d]imidazol-2(3H)-one]	++	89.31%			
CN(C)c1ccc(CC(=O)N2CCC(n3c(=O)[nH]c4cccc(C(F)(F)F)c43)CC2)cc1 [GEN1-118, 1-(1-(2-(4-(dimethylamino)phenyl)acetyl)piperidin-4-yl)-7-(trifluoromethyl)-1,3-dihydro-2H-benzo[d]imidazol-2-one]	+	27.57%			
O=c1[nH]c2ccccc2n1C1CCN(C(=S)Cc2ccc(C(F)(F)F)cc2)CC1 [GEN1-128]	+	13.88%			
O=C1CN(C2CCN(C(=O)Cc3ccc(C(F)(F)F)cc3)CC2)c2cccc(C(F)(F)F)c2N1 [GEN1-134, 8-(trifluoromethyl)-4-(1-(2-(4-(trifluoromethyl)phenyl)acetyl)piperidin-4-yl)-3,4-dihydroquinoxaline-2(1H)-one]	−	3.06%			
O=C(Cc1ccc2ncccc2c1)N1CCC(n2c(=S)[nH]c3ccccc32)CC1 [GEN1-137, 2-(quinolin-6-yl)-1-(4-(2-thio-2,3-dihydro-1H-benzo(d)imidazol-1-yl)piperidin-1-yl)ethan-1-one]	+	19.51%			
O=C(Cc1ccc2nccnc2c1)N1CCC(n2c(=O)[nH]c3cccc(C(F)(F)F)c32)CC1 [GEN1-140, 1-(1-(2-(quinoxalin-6-yl)acetyl)piperidin-4-yl)-7-(trifluoromethyl)-1,3-dihydro-2H-benzo[d]imidazol-2-one]	+	53.79%			

Reference: US20230099441A1, “HETEROCYCLIC COMPOUND, APPLICATION THEREOF, AND COMPOSITION CONTAINING SAME” (GenEros Biopharma Ltd., priority 2019, published 2023)
